Source: article PMC12308784, “Organometallic Half-Sandwich Complexes of 1,10-Phenanthroline Derivatives with Improved Solubility, Albumin-Binding, and Nanoformulation Potential Targeting Drug Resistance in Cancer” (Inorganic Chemistry, 2025)
Where “and” joins values, the source holds several entries; their conditions need not be identical. Identical values can stand only once.

Key:
[1] = target: T1, human serum albumin (HSA), Trp-214 in Sudlow’s site I (Homo sapiens, UniProt P02768); test: Trp-214 fluorescence quenching of HSA; assay type: binding; details: PBS’; t = 25 °C; 24 h incubation; c HSA = 1.2 μM; RuCym values conditional at 24 h
T1 construct: purchased Sigma-Aldrich A8763
Excerpt: Fluorescence spectroscopy was utilized to elucidate the binding sites on HSA that are targeted by the metal complexes. This investigation concentrated on two key aspects: the quenching of HSA’s intrinsic fluorescence attributed to the sole tryptophan residue (Trp-214) and the displacement of site-specific fluorescent markers warfarin (WF) and dansylglycine (DG). Trp-214 is situated in Sudlow’s site I within the IIA subdomain, rendering it a valuable probe for evaluating interactions at this site. Fluorometric measurements, conducted over a 5 h time frame (see example for RhCp*BP in Figure S19), corroborated the results of UV–vis experiments, the quenching of fluorescence took several hours for the RhCp* complexes, while RuCym compounds had no remarkable effect of Trp-214 fluorescence. Quenching studies were conducted over a 24 h incubation period. This time frame is most probably not enough to reach equilibrium with RuCym complexes; however, this is considered as the upper limit that can be physiologically relevant, as longer incubation times are rendered irrelevant by metabolism and elimination. […] Quenching constants (KQ^′) were computed using HypSpec software. […] It should be noted that quenching constants calculated for the RuCym complexes represent only a temporary state at 24 h of incubation time.
7 Binding interactions of RhCp*BP with HSA analyzed via fluorescence quenching and marker displacement assays. (a) Trp214 fluorescence quenching by RhCp*BP. (b) Measured (dots) and fitted (dashed lines) quenching curves for RhCp*BP, RuCymBP, RhCp*DCP, and RuCymDCP. Fluorescence spectra of the (c) HSA–WF 1:1 and (e) HSA–DG 1:1 systems by the addition of RhCp*BP (dashed lines indicate the free site marker) and the corresponding fluorescence intensity curves at the indicated wavelengths (d,f). The dotted line in figure (d) denotes the fitted intensities. {c HSA = 1.2 μM; c marker = 0 or 1.2 μM PBS’; t = 25 °C}.
Fluorescence measurements were carried out on a Fluoromax (Horiba Jobin Yvon) spectrofluorometer using a 1 cm × 1 cm quartz cuvette in order to assess the interactions of the complexes with HSA in PBS’ medium at 25 °C. The calculated quenching or displacement conditional constants for the HSA-complex species were obtained using the computer program HypSpec. Calculations always were based on data obtained from at least two independent measurements. Self-absorbance and inner filter effect had to be taken into account, and corrections were made as it was described in our former works. , […]
Table S7. Conditions applied for steady -state spectrofluorometric measurements. cHSA cMARKER ccomplex λEX λEM slit widths […]

[2] = target: T2, HSA Sudlow’s site I (IIA subdomain) (Homo sapiens, UniProt P02768); test: warfarin (WF) site marker displacement on HSA; assay type: binding; details: PBS’; t = 25 °C; HSA–WF 1:1, 1.2 μM
T2 construct: purchased Sigma-Aldrich A8763
Method: To further explore the binding affinity and site specificity of the metal complexes, site marker displacement experiments were conducted using WF and DG, which bind to Sudlow’s site I (in IIA subdomain) and to Sudlow’s site II (in IIIA subdomain), respectively. The displacement of these fluorescence probes directly confirms the interactions of the metal complexes with the respective binding sites. The displacement constants of WF (KWF′) by the metal complexes (Figure c,d, Table ) were correlated with the Trp-214 quenching data.
Fluorescence measurements were carried out on a Fluoromax (Horiba Jobin Yvon) spectrofluorometer using a 1 cm × 1 cm quartz cuvette in order to assess the interactions of the complexes with HSA in PBS’ medium at 25 °C. The calculated quenching or displacement conditional constants for the HSA-complex species were obtained using the computer program HypSpec. Calculations always were based on data obtained from at least two independent measurements. Self-absorbance and inner filter effect had to be taken into account, and corrections were made as it was described in our former works. ,
Table S7. Conditions applied for steady -state spectrofluorometric measurements.
cHSA cMARKER ccomplex λEX λEM slit widths
(μM) (μM) (μM) (nm) (nm) EX/EM […]
S.; Deflon, V. M.; Ferreira, A. G.; Cominetti, M. R.; Batista, A. A. Cytotoxicity of Ru(II) Piano-
Stool Complexes with Chloroquine and Chelating Ligands against Breast and Lung Tumor Cells:
Interactions with DNA and BSA. J Inorg Biochem 2015, 153, 150–161.
Van Deun, R.; Van Hecke, K. Antitumor Activity of Organoruthenium Complexes with Chelate

[3] = H2O/Cl– co-ligand exchange constant by UV–vis spectrophotometry; assay type: physicochemical; details: pH = 6.0, 20 mM phosphate buffer; t = 25 °C
Method: The coordinated chlorido ligand can undergo spontaneous partial exchange upon dissolution, making it essential to determine the equilibrium constant for the [M(η^6-arene/η^5-arenyl)(ligand)-Cl]^+ + H2O ⇌ [M(η^6-arene/η^5-arenyl)(ligand)(H2O)]^2+ + Cl^– process (or for the reverse direction) to evaluate the ratio of chlorido to aqua complexes. The logK′ (H2O/Cl^–) constants were determined by UV–vis spectrophotometry (Figure ) due to the changes in the charge transfer bands. […] Importantly, this process is slow for the RuCym complexes, which requires a longer time to reach equilibrium, necessitating careful equilibration in experimental setups before further analysis. Therefore, in the case of the RuCym complexes, individual samples were prepared and their spectra were measured after 1 h, while the spectra for the RhCp* complexes were obtained by direct titration with the KCl solution. The appearance of isosbestic points in the spectra confirms the clear equilibrium between chlorido- and aqua complexes.
4 (a) Changes in the UV–vis spectra of complex RuCymBP due to the H2O/Cl^– coligand exchange process, (b) with absorbance variation at 357 nm plotted as a function of the chloride concentration (○) with the fitted curve (dashed line). Individual samples were prepared and the spectra were recorded after 1 h waiting time. {c complex = 28 μM; c Cl– = 56 μM – 0.29 M; t = 25 °C; pH = 6.0 (20 mM phosphate buffer)}.
An Agilent Cary 8454 diode array spectrophotometer was utilized to obtain UV–vis spectra in the wavelength range 190–1100 nm; the path length was 1 cm. The concentrations of the complexes were between 20 and 100 μM. The actual pH of the samples were measured with an Orion 710A pH-meter equipped with a Metrohm combined electrode (type 6.0234.100) and the pH titrations were performed by a KOH solution using a Metrohm 665 Dosimat buret at 25.0 °C. […] The computer program HypSpec was used to calculate the equilibrium constants.

T1 sequence (P02768 25-609): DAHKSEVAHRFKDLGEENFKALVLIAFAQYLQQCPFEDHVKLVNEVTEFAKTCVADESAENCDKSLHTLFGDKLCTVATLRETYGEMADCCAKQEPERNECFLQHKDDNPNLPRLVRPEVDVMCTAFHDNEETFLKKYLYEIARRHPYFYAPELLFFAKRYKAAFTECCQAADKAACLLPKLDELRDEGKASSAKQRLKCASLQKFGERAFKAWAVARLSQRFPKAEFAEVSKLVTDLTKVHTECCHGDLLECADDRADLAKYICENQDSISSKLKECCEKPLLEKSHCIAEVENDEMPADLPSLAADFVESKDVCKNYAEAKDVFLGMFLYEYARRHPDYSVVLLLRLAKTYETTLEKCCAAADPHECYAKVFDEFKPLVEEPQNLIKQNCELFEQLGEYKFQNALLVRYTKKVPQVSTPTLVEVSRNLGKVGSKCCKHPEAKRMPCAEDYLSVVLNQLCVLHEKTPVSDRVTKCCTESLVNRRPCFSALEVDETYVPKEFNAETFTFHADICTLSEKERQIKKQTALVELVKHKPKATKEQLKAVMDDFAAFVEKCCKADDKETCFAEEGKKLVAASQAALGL
T2 sequence (P02768 25-609): as above

Molecule | logK Q′ (quenching constant) [1] | logK WF′ (WF displacement constant) [2] | logK′ (H2O/Cl–) [3]
Cc1c(C)c(C)[c-](C)c1C.Clc1ccnc2c1ccc1c(Cl)ccnc12.[Cl-].[Cl-].[Rh+3] [RhCp*DCP, [Rh(III)(η^5-C5Me5)(4,7-dichloro-1,10-phenanthroline)Cl]Cl] | 4.6 and 4.6 ± 0.1 | 4.8 ± 0.1 | 2.85 ± 0.01 ^b
Cc1ccc(C(C)C)cc1.[Cl-].[Cl-].[Ru+2].c1ccc(-c2ccnc3c2ccc2c(-c4ccccc4)ccnc23)cc1 [RuCymBP, [Ru(II)(η^6-p-cymene)(bathophenanthroline)Cl]Cl] | 4.3 ± 0.1 | 4.4 ± 0.1 | 2.31 ± 0.13
Cc1ccc(C(C)C)cc1.Clc1ccnc2c1ccc1c(Cl)ccnc12.[Cl-].[Cl-].[Ru+2] [RuCymDCP, [Ru(II)(η^6-p-cymene)(4,7-dichloro-1,10-phenanthroline)Cl]Cl] | ≤3.8 | ≤4.3 | 2.31 ± 0.03
[Rh(III)(η^5-C5Me5)(bathophenanthroline)Cl]Cl [RhCp*BP] | 5.5 and 5.5 ± 0.1 | 5.6 ± 0.1 | 2.98 ± 0.01
